Results on two compounds are retold here after US7041785B1, “B1-bradykinin receptor antagonists and use thereof” (Université de Sherbrooke, priority 1996, dated 2006).

Data set [1] has as its system streptozotocin-induced diabetic mice. Conditions: mouse, in vivo.
Method: Male C57BL/Ks mdb mice were injected with streptozotocin (40 mg/kg) for 5 consecutive days. […] Treatment with antagonists was started 3 days after STZ and lasted for 10 days. Plasma glucose was determined by the glucose oxidase method, and 13 days urinary samples were assayed for proteins, nitrites and kallikreins.
Male C57BL/Ksmdb mice, 3 month old were provided by National Institute of Genetic, Buenos Aires. The animals were housed at a constant room temperature, with a 12 h light-dark cycle.
Blood (50–60 ul) was collected from the tail vein of non fasting animals in heparinized capillary tubes. Blood samples were taken one day before starting the STZ injection and at the day 13, just before sacrifice. Blood samples were centrifuged and the plasma immediately diluted into the appropriate buffer. Plasma glucose was determined by a glucose oxidase method (the kit was obtained from Wiener, Argentina). […] Urinary volume was determined gravimetrically and urinary samples were assayed for proteins^45, nitrites^40 and kallikrein^47.
Streptozotocin was purchased from the Sigma Chem Co., St. Louis, Mo. […] The paranitroanilide (pNA) released by enzymatic action on the substrate was measured calorimetrically to determine kallikrein activity
All data were expressed as mean=S.E. Analysis of Variance (ANOVA) was performed to evaluate differences among the groups. p<0.05 was considered as significant.
The target of data set [2] is T1, angiotensin-converting enzyme (ACE) from rabbit lungs (Oryctolagus cuniculus, UniProt P12822).
T1 sequence (P12822 34-1310): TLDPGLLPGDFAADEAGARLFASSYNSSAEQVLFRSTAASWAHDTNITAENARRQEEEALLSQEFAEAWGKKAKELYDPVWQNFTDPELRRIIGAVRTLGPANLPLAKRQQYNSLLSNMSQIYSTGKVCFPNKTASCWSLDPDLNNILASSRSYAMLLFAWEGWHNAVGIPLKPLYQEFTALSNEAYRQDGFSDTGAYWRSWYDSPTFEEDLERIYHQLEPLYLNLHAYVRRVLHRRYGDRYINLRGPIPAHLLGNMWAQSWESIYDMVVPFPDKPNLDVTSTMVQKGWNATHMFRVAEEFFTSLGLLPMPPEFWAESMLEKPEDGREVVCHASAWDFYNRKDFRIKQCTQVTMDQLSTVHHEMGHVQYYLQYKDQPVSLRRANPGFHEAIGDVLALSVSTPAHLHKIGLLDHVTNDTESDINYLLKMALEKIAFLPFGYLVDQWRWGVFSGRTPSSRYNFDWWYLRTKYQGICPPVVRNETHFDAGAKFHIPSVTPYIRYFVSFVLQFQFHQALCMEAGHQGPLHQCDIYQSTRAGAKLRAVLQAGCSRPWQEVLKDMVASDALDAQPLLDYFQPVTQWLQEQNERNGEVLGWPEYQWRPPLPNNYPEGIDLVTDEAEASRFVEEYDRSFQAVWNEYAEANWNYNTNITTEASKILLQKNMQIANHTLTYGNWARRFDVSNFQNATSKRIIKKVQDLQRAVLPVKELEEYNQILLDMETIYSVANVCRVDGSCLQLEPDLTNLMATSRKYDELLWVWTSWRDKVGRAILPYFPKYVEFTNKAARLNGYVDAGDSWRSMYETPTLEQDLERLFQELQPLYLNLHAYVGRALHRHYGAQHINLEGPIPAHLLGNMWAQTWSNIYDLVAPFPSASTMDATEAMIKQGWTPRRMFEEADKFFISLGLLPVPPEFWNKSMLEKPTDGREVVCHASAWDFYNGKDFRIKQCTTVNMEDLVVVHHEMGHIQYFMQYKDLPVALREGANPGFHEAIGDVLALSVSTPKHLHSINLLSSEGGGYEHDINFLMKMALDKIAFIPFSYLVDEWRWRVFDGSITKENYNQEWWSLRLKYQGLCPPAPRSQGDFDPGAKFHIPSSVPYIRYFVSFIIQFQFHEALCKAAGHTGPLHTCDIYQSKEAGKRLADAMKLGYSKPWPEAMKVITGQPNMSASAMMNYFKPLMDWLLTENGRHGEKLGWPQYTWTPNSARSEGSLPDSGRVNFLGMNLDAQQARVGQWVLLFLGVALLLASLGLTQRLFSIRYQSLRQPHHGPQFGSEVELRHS
Conditions: cited from earlier work.

The target in a further data set is T2, BK-B1 receptor (Rattus norvegicus, UniProt P97583).
T2 construct: Segments of the portal vein (a known preparation for BK studies) from these rats were mounted in organ baths; from tissue; host or cells: rat portal vein segments (STZ-diabetic and normal rats)
T2 sequence (P97583 1-337): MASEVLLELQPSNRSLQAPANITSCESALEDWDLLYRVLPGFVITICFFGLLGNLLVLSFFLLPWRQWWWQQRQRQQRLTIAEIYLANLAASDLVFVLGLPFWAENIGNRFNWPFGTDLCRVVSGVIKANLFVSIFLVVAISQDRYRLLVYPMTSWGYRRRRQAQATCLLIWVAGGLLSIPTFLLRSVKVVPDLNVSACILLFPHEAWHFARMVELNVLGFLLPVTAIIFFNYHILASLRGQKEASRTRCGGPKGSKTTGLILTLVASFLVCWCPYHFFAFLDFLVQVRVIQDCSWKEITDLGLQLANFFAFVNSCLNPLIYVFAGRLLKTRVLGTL
The data set is described as follows: Isometric contraction of portal vein segments from STZ-induced diabetic rats. In kind it is cell-based. Conditions: P<0.001. From the text:
Capillary permeability is known to be selectively augmented in the streptozotocin (STZ) diabetic rat model^49. The vascular BK receptors in the STZ-induced diabetic rat was examined. Segments of the portal vein (a known preparation for BK studies) from these rats were mounted in organ baths for isometric contraction studies. The response to desArg^9BK, a specific BK–B1 receptor agonist, was enhanced by 118% in the diabetic tissue, compared to normal portal veins (0.48 vs 0.22g: P<0.001). […] HOE140, the BK–B2 receptor antagonist, had no effect on the diabetic portal vein abnormality. Evans blue (EB: 20 mg/kg), a marker of albumin extravasation, was injected to unanesthetized diabetic rats. […] Therefore, it was concluded that post-capillary hypercontractility to BK (via its B1 receptor) forces EB extravasation, and likely contributed to the diabetic vasculopathy.

Regarding `NC(N)=NCCC[C@@H](N)C(=O)N[C@@H](CCCN=C(N)N)C(=O)N1CCC[C@H]1C(=O)N1C[C@H](O)C[C@H]1C(=O)NCC(=O)N[C@@H](Cc1cccs1)C(=O)N[C@@H](CO)C(=O)N1Cc2ccccc2C[C@@H]1C(=O)N1[C@H](C(=O)N[C@@H](CCCN=C(N)N)C(=O)O)C[C@@H]2CCCC[C@@H]21` [HOE140, D-Arg(Hyp^3, Thi^5, D-Tic^7, Oic^8)BK], the Body weight entry in data set [1] was “No changes of body weight”.
With `N=C(N)NCCC[C@H](N)C(=O)N1CCC[C@H]1C(=O)N1CCC[C@H]1C(=O)NCC(=O)N[C@@H](Cc1ccccc1)C(=O)N[C@@H](CO)C(=O)N1CCC[C@H]1C(=O)N[C@@H](Cc1ccccc1)C(=O)O` [desArg^9BK, Arg-Pro-Pro-G1y-Phe-Ser-Pro-Phe], the “Metabolism of naturally-occurring kinins by ACE” value in data set [2] was “fully metabolised”. Further, the “Enhancement of response in diabetic tissue compared to normal portal veins” value on BK-B1 receptor is on record as 118%.
